From US4278762A, “Method for the quantitative determination of plasminogen activators” (Pentapharm AG, priority 1976, dated 1981)
Counter-ions that a name gives are not always drawn. Non-standard residues stand in square brackets, D forms with d. Residues, ends and D or L forms follow the SMILES beside them. *: point of attachment. Hydrocinnamoyl = O=C(CCc1ccccc1)*; dChg = N[C@@H](C(=O)O)C1CCCCC1; pNA = O=[N+]([O-])c1ccc(N*)cc1; Chg = N[C@H](C(=O)O)C1CCCCC1; Cbz = O=C(OCc1ccccc1)*; PhAc = O=C(Cc1ccccc1)*; Bz = O=C(c1ccccc1)*

Columns and labels:
Assay type in all cases: biochemical
bovine trypsin = target: T1, bovine trypsin (Bos taurus, UniProt P00760); assay: Activity of bovine trypsin at constant substrate and enzyme concentrations (Table IV); conditions: substrate concentration 2 × 10^-4 M; pH 8.4, ionic strength 0.30, 37° C., 405 nm
T1 sequence (P00760 24-246): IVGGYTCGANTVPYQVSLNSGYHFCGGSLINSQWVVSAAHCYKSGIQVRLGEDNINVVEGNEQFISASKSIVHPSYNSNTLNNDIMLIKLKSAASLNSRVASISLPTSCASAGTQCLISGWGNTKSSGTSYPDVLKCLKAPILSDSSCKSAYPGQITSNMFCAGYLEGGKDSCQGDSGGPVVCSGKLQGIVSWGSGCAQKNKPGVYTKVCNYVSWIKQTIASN
Description: The results listed in Table IV were obtained under the following experimental conditions: In a measuring vessel 1.7 ml of tris-imidazole buffer having a pH of 8.4 and an ionic strength of 0.30 were mixed at 37° C. with 0.1 ml of an aqueous trypsin solution having a concentration of 2 NF units of trypsin per ml. To the mixture 0.2 ml of a 2×10^-3 molar solution of the substrate to be tested was added. Thereafter, the quantity of p-nitroaniline released from the substrate by the action of the trypsin was determined by measuring the change in the optical density Δ OD per minute at a wave length of 405 nm.

kallikrein = assay: Hydrolysis of tripeptide-p-nitroanilides by kallikrein
urokinase = target: T2, urokinase (Homo sapiens, UniProt P00749); assay: Amidolytic splitting by urokinase and other plasminogen activators
T2 construct: also urine of healthy test persons

trypsin = target: T3, trypsin (Bos taurus, UniProt P00760); assay: Kinetic constants Km and vmax of substrate hydrolysis by trypsin (Lineweaver-Burk); conditions: per NF unit
T3 construct: b360 concerns trypsin in duodenal juice
T3 sequence (P00760 24-246): T1 sequence (P00760 24-246)
Description: The enzyme and the substrate are mixed in a buffer solution, and the hydrolysis reaction is followed for 2 to 30 minutes. The concentration of substate [S] is varied, whereas the enzyme concentration is kept constant. If the extinction (OD=optical density) is plotted in a co-ordinate system as a function of time, a curve is obtained the tangent of which at time zero corresponds to the ideal course of the hydrolysis. By means of this tangent the initial rate of the hydrolysis can be determined.
If 1/v is plotted against (1/[S]), a Lineweaver-Burk diagram (cf. "Kurzes Lehrbuch der Biochemie" by P. KARLSON, Georg Thieme-Verlag, Stuttgart, 1967, p. 70) is obtained from which vmax and Km can be determined graphically.
For the determination of the kinetic constants Km and vmax listed in Table I aqueous dilution series of the substrates with concentrations from 0.1 to 2 μmoles/ml were used. […] The value of the quantity of p-nitroaniline formed per minute is a measure for the rate of hydrolysis at a given substrate concentration. […] The kinetic constants Km and vmax were determined from the points of intersection of the curves with the abscissa and the ordinate.

SMILES | Quantity in nanomoles of p-nitroaniline enzymatically released from the substrate by 1 NF unit of trypsin in 1 minute (bovine trypsin) | other results
CC(C)[C@H](N)C(=O)NCC(=O)N[C@@H](CCCNC(=N)N)C(=O)Nc1ccc([N+](=O)[O-])cc1 [Substrate II, H-Val-Gly-Arg-pNA.2HCl] (H-Val-Gly-Arg-pNA) | 10,8 nanomoles | –
N=C(N)NCCC[C@H](NC(=O)[C@H](Cc1ccccc1)NC(=O)[C@@H]1CCCN1)C(=O)Nc1ccc([N+](=O)[O-])cc1 [A] (H-Pro-Phe-Arg-pNA) | – | hydrolysis by kallikrein (in words) (kallikrein): hydrolyzed by kallikrein
CC(C)C[C@H](NC(=O)c1ccccc1)C(=O)N[C@@H](CO)C(=O)N[C@@H](CCCNC(=N)N)C(=O)Nc1ccc([N+](=O)[O-])cc1 [Substrate VII, N^α -Bz-Leu-Ser-Arg-pNA.HCl] (Bz-Leu-Ser-Arg-pNA) | 25.7 nmol | –
CC(C)[C@H](NC(=O)Cc1ccccc1)C(=O)NCC(=O)N[C@@H](CCCNC(=N)N)C(=O)Nc1ccc([N+](=O)[O-])cc1 [Substrate IX, N^α -2-Phenylacetyl-Val-Gly-Arg-pNA.HCl] (PhAc-Val-Gly-Arg-pNA) | 17.5 nmol | –
N=C(N)NCCCC(NC(=O)c1ccccc1)C(=O)Nc1ccc([N+](=O)[O-])cc1 (racemic) [N^α --Bz--DL--Arg--pNA . HCl, reference compound] | 0,45 nanomoles | –
CC[C@H](C)[C@H](NC(=O)c1ccccc1)C(=O)N[C@@H](CO)C(=O)N[C@@H](CCCNC(=N)N)C(=O)Nc1ccc([N+](=O)[O-])cc1 [Substrate VI, N^α -Bz-Ile-Ser-Arg-pNA.HCl] (Bz-Ile-Ser-Arg-pNA) | 19.1 nmol | –
CC[C@H](C)[C@H](NC(=O)c1ccccc1)C(=O)NCC(=O)N[C@@H](CCCNC(=N)N)C(=O)Nc1ccc([N+](=O)[O-])cc1 [Substrate III, N^α -Bz-Ile-Gly-Arg-pNA.HCl] (Bz-Ile-Gly-Arg-pNA) | 28.5 nmol | –
N=C(N)NCCC[C@H](NC(=O)CNC(=O)[C@H](N)C1CCCCC1)C(=O)Nc1ccc([N+](=O)[O-])cc1 [XIII] (H-[dChg]-Gly-Arg-pNA) | 28.8 nmol | –
N=C(N)NCCC[C@H](NC(=O)CNC(=O)[C@@H](NC(=O)OCc1ccccc1)C1CCCCC1)C(=O)Nc1ccc([N+](=O)[O-])cc1 [X] (Cbz-[Chg]-Gly-Arg-pNA) | 46.7 nmol | –
CC(C)[C@H](NC(=O)CCc1ccccc1)C(=O)NCC(=O)N[C@@H](CCCNC(=N)N)C(=O)Nc1ccc([N+](=O)[O-])cc1 [Substrate VIII, N^α -3-Phenylpropionyl-Val-Gly-Arg-pNA.HCl] (Hydrocinnamoyl-Val-Gly-Arg-pNA) | 14.2 nmol | –
CC(C)[C@H](N)C(=O)NCC(=O)N[C@@H](CCCNC(=N)N)C(=O)Nc1ccc([N+](=O)[O-])cc1 [B] (H-Val-Gly-Arg-pNA) | – | splitting by urokinase and other plasminogen activators (in words) (urokinase): rapidly amidolytically split by urokinase; hydrolysis by kallikrein (in words) (kallikrein): not split by kallikrein at all
CC(C)[C@H](NC(=O)c1ccccc1)C(=O)N[C@@H](CO)C(=O)N[C@@H](CCCNC(=N)N)C(=O)Nc1ccc([N+](=O)[O-])cc1 [Substrate V, N^α -Bz-Val-Ser-Arg-pNA.HCl] | 15.9 nmol | –
CC(C)[C@@H](N)C(=O)NCC(=O)N[C@@H](CCCNC(=N)N)C(=O)Nc1ccc([N+](=O)[O-])cc1 [XVI] (H-[dV]-Gly-Arg-pNA) | 33.3 nmol | Vmax (trypsin): 4.17 × 10^-3 μmole/min. NF
N=C(N)NCCC[C@H](NC(=O)CNC(=O)[C@@H](N)C1CCCCC1)C(=O)Nc1ccc([N+](=O)[O-])cc1 [XI] (H-[Chg]-Gly-Arg-pNA) | 20.0 nmol | –
N=C(N)NCCC[C@H](NC(=O)CNC(=O)[C@@H](NC(=O)c1ccccc1)C1CCCCC1)C(=O)Nc1ccc([N+](=O)[O-])cc1 [XII] (Bz-[Chg]-Gly-Arg-pNA) | 37.9 nmol | –
CC(C)[C@H](NC(=O)OCc1ccccc1)C(=O)NCC(=O)N[C@@H](CCCNC(=N)N)C(=O)Nc1ccc([N+](=O)[O-])cc1 [XV] (Cbz-Val-Gly-Arg-pNA) | 41.3 nmol | –
CC(C)C[C@H](NC(=O)c1ccccc1)C(=O)NCC(=O)N[C@@H](CCCNC(=N)N)C(=O)Nc1ccc([N+](=O)[O-])cc1 [Substrate IV, N^α -Bz-Leu-Gly-Arg-pNA.HCl] (Bz-Leu-Gly-Arg-pNA) | 19.2 nmol | –
N=C(N)NCCC[C@H](NC(=O)CNC(=O)[C@H](NC(=O)c1ccccc1)C1CCCCC1)C(=O)Nc1ccc([N+](=O)[O-])cc1 [XIV] (Bz-[dChg]-Gly-Arg-pNA) | 41.9 nmol | –
CC(C)[C@H](NC(=O)[C@H](Cc1ccccc1)NC(=O)c1ccccc1)C(=O)N[C@@H](CCCNC(=N)N)C(=O)Nc1ccc([N+](=O)[O-])cc1 [N^α --Bz--Phe--Val--Arg--pNA . HCl, reference compound] (Bz-Phe-Val-Arg-pNA) | 8,4 nanomoles | –
